Results as given in the supplement of paper PMC11451515.

Columns and labels:
Conditions in all cases: 48 h
[1] = test system: SEM cells; test: cell viability relative to DMSO control; higher = less cytotoxic
In short: (§1)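 Before seeding, each leukemia line was adapted for at least four passages in each medium. NOMO1 or SEM cells (500 cells/well) and P12-Ichikawa cells (1000 cells/well) went into 1536-well plates at 5 μl, then received library compounds in DMSO by pin dosing across 11 threefold concentrations, 47 μM to 0.79 nM. Readout was CellTiter-Glo One luminescence after 48 h at 37°C, and viability is given as a per-plate percentage of DMSO wells, with cell-free wells as background.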

[2] = test system: P12-Ichikawa; test: as above
In short: as §1

[3] = test system: NOMO1; test: as above
In short: as §1

[4] = test system: SEM cells; test: AUC of viability dose-response curve (% viability x log10 dose units); higher = less sensitive
In short: (§2)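 Leukemia cells adapted to each medium were seeded at 500 or 1000 cells/well in 1536-well plates and dosed with library compounds in DMSO at 11 threefold doses from 47 μM to 0.79 nM for 48 h at 37°C. CellTiter-Glo One luminescence was normalised per plate to DMSO and cell-free wells, then fitted with a four-parameter log-logistic model over log10 doses. Area under the curve was taken from this fit by the trapezoidal rule, with curves above full viability scaled and curves failing quality control removed.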

[5] = test system: P12-Ichikawa; test: as above
In short: as §2

[6] = test system: NOMO1; test: as above
In short: as §2

CN1CCCC(CC1)N2\N=C(CC3=CC=C(Cl)C=C3)/C4=C(C=CC=C4)C2=O (centres undefined)
cell viability [%]
Conditions | [1] | [2] | [3]
HPLM + 10% dialyzed FBS, 0.000781 µM | 92.9 | 112 | 101
HPLM + 10% dialyzed FBS, 0.00234 µM | 110 | 112 | 108
HPLM + 10% dialyzed FBS, 0.00702 µM | 104 | 116 | 109
HPLM + 10% dialyzed FBS, 0.0211 µM | 114 | 111 | 122
HPLM + 10% dialyzed FBS, 0.0632 µM | 110 | 123 | 127
HPLM + 10% dialyzed FBS, 0.19 µM | 112 | 112 | 125
HPLM + 10% dialyzed FBS, 0.569 µM | 99.1 | 119 | 112
HPLM + 10% dialyzed FBS, 1.71 µM | 106 | 112 | 120
HPLM + 10% dialyzed FBS, 5.12 µM | 111 | 116 | 109
HPLM + 10% dialyzed FBS, 15.4 µM | 101 | 94.5 | 65.7
HPLM + 10% dialyzed FBS, 46.1 µM | 74.9 | 51.9 | 48.1
RPMI 5 mM glucose + 10% FBS, 0.000781 µM | 72.4 | 109 | 102
RPMI 5 mM glucose + 10% FBS, 0.00234 µM | 78.3 | 105 | 107
RPMI 5 mM glucose + 10% FBS, 0.00702 µM | 71.9 | 113 | 120
RPMI 5 mM glucose + 10% FBS, 0.0211 µM | 79.5 | 116 | 109
RPMI 5 mM glucose + 10% FBS, 0.0632 µM | 81.8 | 117 | 109
RPMI 5 mM glucose + 10% FBS, 0.19 µM | 94.8 | 126 | 112
RPMI 5 mM glucose + 10% FBS, 0.569 µM | 90.2 | 123 | 108
RPMI 5 mM glucose + 10% FBS, 1.71 µM | 98.9 | 121 | 114
RPMI 5 mM glucose + 10% FBS, 5.12 µM | 83.8 | 122 | 107
RPMI 5 mM glucose + 10% FBS, 15.4 µM | 80.6 | 114 | 94.2
RPMI 5 mM glucose + 10% FBS, 46.1 µM | 73.1 | 66.2 | 55.5
RPMI 5 mM glucose + 10% dialyzed FBS, 0.000781 µM | 91.7 | 109 | 117
RPMI 5 mM glucose + 10% dialyzed FBS, 0.00234 µM | 108 | 109 | 118
RPMI 5 mM glucose + 10% dialyzed FBS, 0.00702 µM | 96.2 | 109 | 107
RPMI 5 mM glucose + 10% dialyzed FBS, 0.0211 µM | 102 | 113 | 110
RPMI 5 mM glucose + 10% dialyzed FBS, 0.0632 µM | 112 | 124 | 125
RPMI 5 mM glucose + 10% dialyzed FBS, 0.19 µM | 105 | 128 | 128
RPMI 5 mM glucose + 10% dialyzed FBS, 0.569 µM | 108 | 121 | 121
RPMI 5 mM glucose + 10% dialyzed FBS, 1.71 µM | 121 | 114 | 109
RPMI 5 mM glucose + 10% dialyzed FBS, 5.12 µM | 96.5 | 118 | 112
RPMI 5 mM glucose + 10% dialyzed FBS, 15.4 µM | 109 | 103 | 106
RPMI 5 mM glucose + 10% dialyzed FBS, 46.1 µM | 97.6 | 65.9 | 57.1

AUC of viability dose-response curve
Conditions | [4] | [5] | [6]
HPLM + 10% dialyzed FBS | 468 | 455 | 440
RPMI 5 mM glucose + 10% FBS | 394 | 466 | 457
RPMI 5 mM glucose + 10% dialyzed FBS | 464 | 461 | 461

CN[C@@H](C)C(=O)N[C@H]1CN(C(=O)CC(C)C)CC[C@H]2CC[C@@H](C(=O)NC(c3ccccc3)c3ccccc3)N2C1=O
cell viability [%]
Conditions | [1] | [2] | [3]
HPLM + 10% dialyzed FBS, 0.000781 µM | 76.3 | 98.3 | 96.2
HPLM + 10% dialyzed FBS, 0.00234 µM | 90.5 | 104 | 118
HPLM + 10% dialyzed FBS, 0.00702 µM | 98.3 | 107 | 112
HPLM + 10% dialyzed FBS, 0.0211 µM | 100 | 111 | 119
HPLM + 10% dialyzed FBS, 0.0632 µM | 98.1 | 110 | 82.9
HPLM + 10% dialyzed FBS, 0.19 µM | 93.7 | 102 | 85.2
HPLM + 10% dialyzed FBS, 0.569 µM | 99 | 103 | 74
HPLM + 10% dialyzed FBS, 1.71 µM | 103 | 100 | 54.5
HPLM + 10% dialyzed FBS, 5.12 µM | 99.9 | 96.7 | 17.4
HPLM + 10% dialyzed FBS, 15.4 µM | 71.4 | 14.8 | 13.9
HPLM + 10% dialyzed FBS, 46.1 µM | 41 | 10.2 | 11.3
RPMI 5 mM glucose + 10% FBS, 0.000781 µM | 107 | 96.8 | 102
RPMI 5 mM glucose + 10% FBS, 0.00234 µM | 103 | 110 | 105
RPMI 5 mM glucose + 10% FBS, 0.00702 µM | 105 | 109 | 104
RPMI 5 mM glucose + 10% FBS, 0.0211 µM | 110 | 111 | 100
RPMI 5 mM glucose + 10% FBS, 0.0632 µM | 104 | 114 | 96.9
RPMI 5 mM glucose + 10% FBS, 0.19 µM | 102 | 112 | 91.6
RPMI 5 mM glucose + 10% FBS, 0.569 µM | 96.7 | 112 | 95.8
RPMI 5 mM glucose + 10% FBS, 1.71 µM | 83.5 | 108 | 37
RPMI 5 mM glucose + 10% FBS, 5.12 µM | 74.2 | 87.3 | 10.6
RPMI 5 mM glucose + 10% FBS, 15.4 µM | 56.5 | 18.1 | 10.2
RPMI 5 mM glucose + 10% FBS, 46.1 µM | 38.5 | 10.2 | 6.19
RPMI 5 mM glucose + 10% dialyzed FBS, 0.000781 µM | 95.5 | 90.1 | 85.3
RPMI 5 mM glucose + 10% dialyzed FBS, 0.00234 µM | 86.1 | 113 | 98.6
RPMI 5 mM glucose + 10% dialyzed FBS, 0.00702 µM | 92.8 | 101 | 92.6
RPMI 5 mM glucose + 10% dialyzed FBS, 0.0211 µM | 104 | 115 | 94.1
RPMI 5 mM glucose + 10% dialyzed FBS, 0.0632 µM | 106 | 105 | 121
RPMI 5 mM glucose + 10% dialyzed FBS, 0.19 µM | 97.9 | 111 | 91.8
RPMI 5 mM glucose + 10% dialyzed FBS, 0.569 µM | 102 | 112 | 97.1
RPMI 5 mM glucose + 10% dialyzed FBS, 1.71 µM | 95.1 | 107 | 90.3
RPMI 5 mM glucose + 10% dialyzed FBS, 5.12 µM | 77.7 | 97.8 | 17.7
RPMI 5 mM glucose + 10% dialyzed FBS, 15.4 µM | 61 | 43.3 | 13.9
RPMI 5 mM glucose + 10% dialyzed FBS, 46.1 µM | 36.2 | 16.1 | 9.5

AUC of viability dose-response curve
Conditions | [4] | [5] | [6]
HPLM + 10% dialyzed FBS | 431 | 411 | 317
RPMI 5 mM glucose + 10% FBS | 406 | 406 | 336
RPMI 5 mM glucose + 10% dialyzed FBS | 423 | 424 | 361

CN(C)c1nc(Cc2ccc(NC(=O)c3ccc4ccccc4c3)cc2)nc(Cl)c1CC(=O)O
cell viability [%]
Conditions | [1] | [2] | [3]
HPLM + 10% dialyzed FBS, 0.000781 µM | 120 | 112 | 113
HPLM + 10% dialyzed FBS, 0.00234 µM | 114 | 112 | 116
HPLM + 10% dialyzed FBS, 0.00702 µM | 112 | 101 | 112
HPLM + 10% dialyzed FBS, 0.0211 µM | 116 | 101 | 126
HPLM + 10% dialyzed FBS, 0.0632 µM | 109 | 108 | 114
HPLM + 10% dialyzed FBS, 0.19 µM | 111 | 124 | 90.9
HPLM + 10% dialyzed FBS, 0.569 µM | 138 | 104 | 106
HPLM + 10% dialyzed FBS, 1.71 µM | 113 | 99.4 | 65.2
HPLM + 10% dialyzed FBS, 5.12 µM | 105 | 84.8 | 57.6
HPLM + 10% dialyzed FBS, 15.4 µM | 110 | 84.8 | 47.2
HPLM + 10% dialyzed FBS, 46.1 µM | 105 | 69.3 | 48.1
RPMI 5 mM glucose + 10% FBS, 0.000781 µM | 110 | 117 | 115
RPMI 5 mM glucose + 10% FBS, 0.00234 µM | 116 | 107 | 98.2
RPMI 5 mM glucose + 10% FBS, 0.00702 µM | 127 | 124 | 100
RPMI 5 mM glucose + 10% FBS, 0.0211 µM | 108 | 115 | 98.3
RPMI 5 mM glucose + 10% FBS, 0.0632 µM | 107 | 117 | 100
RPMI 5 mM glucose + 10% FBS, 0.19 µM | 110 | 114 | 97
RPMI 5 mM glucose + 10% FBS, 0.569 µM | 110 | 107 | 97.1
RPMI 5 mM glucose + 10% FBS, 1.71 µM | 93.8 | 98.7 | 74.3
RPMI 5 mM glucose + 10% FBS, 5.12 µM | 107 | 87.2 | 73
RPMI 5 mM glucose + 10% FBS, 15.4 µM | 102 | 69.8 | 61.8
RPMI 5 mM glucose + 10% FBS, 46.1 µM | 105 | 73.6 | 44.4
RPMI 5 mM glucose + 10% dialyzed FBS, 0.000781 µM | 119 | 106 | 108
RPMI 5 mM glucose + 10% dialyzed FBS, 0.00234 µM | 115 | 113 | 110
RPMI 5 mM glucose + 10% dialyzed FBS, 0.00702 µM | 136 | 113 | 98.6
RPMI 5 mM glucose + 10% dialyzed FBS, 0.0211 µM | 122 | 111 | 106
RPMI 5 mM glucose + 10% dialyzed FBS, 0.0632 µM | 126 | 106 | 111
RPMI 5 mM glucose + 10% dialyzed FBS, 0.19 µM | 108 | 107 | 99.4
RPMI 5 mM glucose + 10% dialyzed FBS, 0.569 µM | 112 | 105 | 92.9
RPMI 5 mM glucose + 10% dialyzed FBS, 1.71 µM | 107 | 104 | 62.1
RPMI 5 mM glucose + 10% dialyzed FBS, 5.12 µM | 111 | 84 | 63.1
RPMI 5 mM glucose + 10% dialyzed FBS, 15.4 µM | 137 | 68.7 | 60.7
RPMI 5 mM glucose + 10% dialyzed FBS, 46.1 µM | 108 | 61.5 | 43.6

AUC of viability dose-response curve
Conditions | [4] | [5] | [6]
HPLM + 10% dialyzed FBS | 461 | 440 | 377
RPMI 5 mM glucose + 10% FBS | 447 | 427 | 401
RPMI 5 mM glucose + 10% dialyzed FBS | 455 | 434 | 392
